The target of the experiment is T1, 3-dehydroquinate dehydratase (Helicobacter pylori (strain ATCC 700392 / 26695) (Campylobacterpylori), UniProt Q48255).
T1 sequence (Q48255 whole entry): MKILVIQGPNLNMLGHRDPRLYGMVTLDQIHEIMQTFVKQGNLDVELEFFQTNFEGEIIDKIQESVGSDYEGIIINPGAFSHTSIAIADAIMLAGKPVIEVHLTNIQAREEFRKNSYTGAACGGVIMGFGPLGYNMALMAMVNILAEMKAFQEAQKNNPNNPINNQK
The experiment can be described thus: Inhibition of Helicobacter pylori DHQ2 by UV spectroscopy.

By Ki is commonly meant the dissociation constant of the complex between target and ligand, obtained from inhibition or displacement. A higher Ki goes with a looser hold on the target. As to `O=C(O)[C@]1(O)C=C(OCc2cc3ccccc3s2)[C@@H](O)[C@H](O)C1`, the affinity, expressed as Ki, was 132 nM.

For the origin of these results see ChEMBL document CHEMBL1156760, “Synthesis and biological evaluation of new nanomolar competitive inhibitors of Helicobacter pylori type II dehydroquinase. Structural details of the role of the aromatic moieties with essential residues” (J Med Chem, 2010).
